Experimental data from US20230346281A1, “Fully Printed Electrode Biological Interface” (Early Charm Ventures, priority 2022, published 2023).

Tested on: HepG2 hepatocytes tissue layers
Test: Live cell viability / CEIS recordings in the presence of a cytotoxic agent (EtOH)
Format: cell-based, human
Conditions: 12 hour exposure to EtOH (70% final); HEPG2 2 million cells/mL with PEG-PLL (1:10) hydrogel
Experimental: A toxicological agent, Ethanol (EtOH) was used as a clinically relevant cytotoxic agent for the HepG2 hepatocytes tissue layers, HEPG2 (2 million cells/mL) with PEG-PLL (1:10) hydrogel. CEIS recordings were obtained at 1 hour and 24 hours post deposition with and without the cytoxic agent, Table 3. A final CEIS recording was obtained from these cells following a 12 hour exposure to EtOH (70% final). A marked increase in amplitude with additional recovery time post deposition (1 vs 24 hours).

Which “amplitude of CEIS recordings” value does the source give for `CCO` [EtOH, Ethanol] here?
The value was “increased the observed amplitude of CEIS recordings”.
